Source: the NIST ThermoML archive (doi:10.1021/je100231g)
“And” between values parts separate entries of the source, which are not always exact repeats. Equal values may be shown once. ± gives the expanded uncertainty stated by the source.

Settings: Liquid, Gas Saturation Method

CCOC(=O)CC(=O)OCC [diethyl 1,3-propanedioate]
Settings	vapor or sublimation pressure [kPa]
283.8 K	0.00689 ± 0.00044
286.2 K	0.00858 ± 0.00054
289.2 K	0.0115 ± 0.0007
292.3 K	0.015 ± 0.0009
295.2 K	0.0193 ± 0.0012
298.2 K	0.0251 ± 0.0016
301.3 K	0.0321 ± 0.002
304.2 K	0.0405 ± 0.0026
304.7 K	0.0428 ± 0.0027
307.3 K	0.0513 ± 0.0032
310.2 K	0.0646 ± 0.004
313.3 K	0.0814 ± 0.005
316.3 K	0.1005 ± 0.0062

CCCOC(=O)CC(=O)OCCC [dipropyl 1,3-propanedioate]
Settings	vapor or sublimation pressure [kPa]
293.3 K	0.00356 ± 0.00023
298.3 K	0.00582 ± 0.00037
299.4 K	0.00652 ± 0.00041
303.2 K	0.00897 ± 0.00056
307.3 K	0.0129 ± 0.0008
308.2 K	0.0135 ± 0.0009
311.3 K	0.0178 ± 0.0011
313.3 K	0.0199 ± 0.0012
315.3 K	0.0245 ± 0.0015
318.5 K	0.0296 ± 0.0018
319.4 K	0.0332 ± 0.0021
323.4 K	0.0426 ± 0.0026
328.5 K	0.0622 ± 0.0038
333.5 K	0.089 ± 0.0055
336.4 K	0.1095 ± 0.0068
338.5 K	0.13 ± 0.008

CCCCOC(=O)CCCC(=O)OCCCC [dibutyl pentanedioate]
Settings	vapor or sublimation pressure
317.5 K	0.00064 ± 4e-05 kPa
318.3 K	0.0007 ± 4e-05 kPa
322.4 K	0.00103 ± 7e-05 kPa
323.4 K	0.00114 ± 7e-05 kPa and 0.00113 ± 7e-05 kPa
325.4 K	0.00132 ± 8e-05 kPa
326.5 K	0.00145 ± 9e-05 kPa
328.4 K	0.00179 ± 0.00011 kPa and 0.00173 ± 0.00011 kPa
330.6 K	0.0021 ± 0.00013 kPa
331.5 K	0.00229 ± 0.00014 kPa
333.5 K	0.00273 ± 0.00017 kPa
334.6 K	0.00306 ± 0.00019 kPa
334.7 K	0.00298 ± 0.00019 kPa
337.6 K	0.00375 ± 0.00023 kPa
338.6 K	0.00404 ± 0.00025 kPa
340.5 K	0.00475 ± 0.0003 kPa
343.3 K	0.006 ± 0.00037 kPa
346.6 K	0.00782 ± 0.00048 kPa
349.6 K	0.00973 ± 0.00061 kPa
350.3 K	0.0103 ± 0.0006 kPa
352.5 K	0.0121 ± 0.0008 kPa
354.7 K	0.0145 ± 0.0009 kPa
357.5 K	0.0177 ± 0.0011 kPa
360.6 K	0.0213 ± 0.0013 kPa
363.4 K	0.026 ± 0.0016 kPa
366.4 K	0.0318 ± 0.002 kPa
369.5 K	0.0403 ± 0.0025 kPa

CCCOC(=O)CCCC(=O)OCCC [pentanedioic acid, dipropyl ester]
Settings	vapor or sublimation pressure [kPa]
313.3 K	0.00276 ± 0.00017
316.4 K	0.00359 ± 0.00022
318.5 K	0.00444 ± 0.00028
319.4 K	0.00478 ± 0.0003
322.5 K	0.00609 ± 0.00037
323.5 K	0.00637 ± 0.0004
325.4 K	0.00778 ± 0.00049
328.5 K	0.01 ± 0.0006
329.5 K	0.0109 ± 0.0007
331.4 K	0.0128 ± 0.0008
333.6 K	0.0149 ± 0.0009
336.4 K	0.0184 ± 0.0011
338.5 K	0.022 ± 0.0014
341.4 K	0.0271 ± 0.0017
343.6 K	0.031 ± 0.0019
346.4 K	0.0385 ± 0.0024
348.4 K	0.0432 ± 0.0027
350.5 K	0.0504 ± 0.0031
353.5 K	0.0628 ± 0.0039

CCCOC(=O)CCC(=O)OCCC [butanedioic acid, dipropyl ester]
Settings	vapor or sublimation pressure [kPa]
308.3 K	0.00487 ± 0.00031
312.4 K	0.00685 ± 0.00043
316.4 K	0.00936 ± 0.00058
318.5 K	0.0111 ± 0.0007
321.5 K	0.0139 ± 0.0009
323.5 K	0.0163 ± 0.001
326.4 K	0.0209 ± 0.0013
328.6 K	0.0252 ± 0.0016
331.3 K	0.0303 ± 0.0019
333.4 K	0.0362 ± 0.0022
336.5 K	0.0443 ± 0.0027
338.5 K	0.0509 ± 0.0031
341.5 K	0.0625 ± 0.0038
343.5 K	0.0723 ± 0.0044

CCCCOC(=O)CCC(=O)OCCCC [butanedioic acid, dibutyl ester]
Settings	vapor or sublimation pressure [kPa]
313.3 K	0.00132 ± 8e-05
316.2 K	0.0017 ± 0.00011
318.3 K	0.00205 ± 0.00013
320.2 K	0.00248 ± 0.00016
323.2 K	0.00325 ± 0.0002
325.2 K	0.00383 ± 0.00024
328.2 K	0.00489 ± 0.0003
330.2 K	0.00577 ± 0.00036
333.2 K	0.00743 ± 0.00046
335.4 K	0.00877 ± 0.00055
338.2 K	0.011 ± 0.0007
340.1 K	0.0121 ± 0.0008
343.2 K	0.0164 ± 0.001
346.2 K	0.0197 ± 0.0012
349.2 K	0.0247 ± 0.0015
352.1 K	0.0319 ± 0.002
355.1 K	0.0387 ± 0.0024
358.2 K	0.0473 ± 0.0029

CCOC(=O)CCC(=O)OCC [diethyl butanedioate]
Settings	vapor or sublimation pressure
290.2 K	0.00495 ± 0.0003 kPa
290.5 K	0.00504 ± 0.00031 kPa
293.5 K	0.00678 ± 0.00042 kPa
296.4 K	0.00861 ± 0.00054 kPa
301.4 K	0.0134 ± 0.0008 kPa
306.4 K	0.0208 ± 0.0013 kPa
311.4 K	0.0313 ± 0.0019 kPa
313.4 K	0.035 ± 0.0022 kPa
316.4 K	0.0455 ± 0.0028 kPa
318.4 K	0.0503 ± 0.0031 kPa
321.4 K	0.0661 ± 0.0041 kPa
323.5 K	0.0777 ± 0.0048 kPa
326.5 K	0.0941 ± 0.0058 kPa and 0.0963 ± 0.0059 kPa
328.5 K	0.1125 ± 0.0069 kPa
331.4 K	0.133 ± 0.0081 kPa
331.6 K	0.1351 ± 0.0082 kPa
333.6 K	0.1517 ± 0.0093 kPa
336.5 K	0.1864 ± 0.011 kPa
339.4 K	0.2221 ± 0.014 kPa
342.4 K	0.2658 ± 0.016 kPa
345.5 K	0.3425 ± 0.021 kPa

CCCCOC(=O)CC(=O)OCCCC [dibutyl 1,3-propanedioate]
Settings	vapor or sublimation pressure [kPa]
303.2 K	0.00138 ± 9e-05
308.3 K	0.00223 ± 0.00014
313.3 K	0.00366 ± 0.00023
318.3 K	0.00557 ± 0.00035
323.2 K	0.00878 ± 0.00054
325.1 K	0.0101 ± 0.0006
328.2 K	0.0131 ± 0.0008
330.2 K	0.0152 ± 0.0009
333.2 K	0.0193 ± 0.0012
335.2 K	0.0217 ± 0.0013
338.2 K	0.0267 ± 0.0017
340.2 K	0.0325 ± 0.002
343.2 K	0.0407 ± 0.0025
345.2 K	0.0454 ± 0.0028
349.1 K	0.0586 ± 0.0036
353.1 K	0.0788 ± 0.0048
357.2 K	0.1022 ± 0.0063
361.2 K	0.1343 ± 0.0082
365.2 K	0.1672 ± 0.01
369.2 K	0.2174 ± 0.013
